Results from patent US20240425464A1, “Substituted Monohydrazides as Potent Antifungal Agents” (University of Kentucky Research Foundation, priority 2023, published 2024).
Values after ≈ are worked out from the molar mass of the structure shown. Where two headings read alike, the source gives them in different places.

Columns and labels:
[1] = system: panel of ten C. auris strains (AR Bank #381-390); test: MIC determination, summary over the C. auris panel; type: cell-based, Candida auris; conditions: Candidozyma auris
Protocol: (§1) The antifungal agent amphotericin B (AmB) was purchased from VWR (Radnor PA, USA). AmB was dissolved in DMSO at a final concentration of 5 mg/mL and was stored at −20° C., protected from light. Candida albicans American Type Culture Collection (ATCC) 10231 (strain A), C. albicans ATCC 64124 (B), and C. albicans ATCC MYA-2876 (C) were obtained from Utah State University. C. albicans ATCC 90819 (D), C. albicans ATCC MYA-2310 (E), C. albicans ATCC MYA-1237 (F), C. albicans ATCC MYA-1003 (G), Candida glabrata ATCC 2001 (H), Candida krusei ATCC 6258 (I), Candida parapsilosis ATCC 22019 (J), Cryptococcus neoformans ATCC MYA-895 (M), Aspergillus terreus ATCC MYA-3633 (N), and Aspergillus flavus ATCC MYA-3631 (0) were obtained from the American Type Culture Collection (ATCC; Manassas, VA, USA). Aspergillus nidulans ATCC 38163 (P) was obtained from University of Kentucky. Clinically derived Aspergillus fumigatus NRRL 163 (Q), A. fumigatus NRRL 5109 (R), and A. fumigatus NRRL 6113 (S) were obtained from Northern Regional Research Laboratory (NRRL). Candida auris 384 (K), C. auris 390 (L), and fungal strains 381-400 (including 10 C. auris (AR Bank #381-390), 3 Candida duobushaemulonii (AR Bank #391, AR Bank #392, and AR Bank #394), 2 Candida haemulonii (AR Bank #393 and AR Bank #395), 1 Kodameae ohmeri (AR Bank #396), 1 C. krusei (AR Bank #397), 1 Candida lusitaniae (AR Bank #398), and 2 Saccharomyces cerevisiae strains (AR Bank #399 and AR Bank #400)) were part of a larger fungal library from the AR Bank maintained by the Centers for Disease Control and Prevention (CDC; Atlanta, GA, USA). Filamentous fungi and yeasts were cultivated at 35° C. in RPMI 1640 medium (with L-glutamine, without sodium bicarbonate, Sigma-Aldrich, St. Louis, MO) buffered to a pH of 7.0 with 0.165 M morpholinepropanesulfonic acid (MOPS) buffer (Sigma-Aldrich). For cytotoxicity assays, HepG2 and the mouse macrophage cell line J774A.1 were obtained from University of Kentucky. The human embryonic kidney cell line, HEK-293, was bought from the ATCC. Mammalian cells were grown in Dulbecco's Modified Eagle's Medium (DMEM) (from VWR) with 10% fetal bovine serum (FBS) (from VWR) and 1% Pen/Strep (from ATCC). Cell lines were cultured at 37° C. with 5% CO2 and passaged by trypsinization with 0.05% trypsin: 0.53 mM EDTA (from Sigma-Aldrich).
(§2) From the actively growing yeast culture, 100 µL were then transferred to 900 μL of RPMI 1640 medium and re-adjusted to achieve OD600 of 0.12 (˜1×10^6 CFU/mL). The cell suspension was further diluted to achieve 1:100 in RPMI 1640 medium.

HepG2 cells = test: In vitro cytotoxicity assay (resazurin); type: cell-based
Protocol: The antifungal agent amphotericin B (AmB) was purchased from VWR (Radnor PA, USA). AmB was dissolved in DMSO at a final concentration of 5 mg/mL and was stored at −20° C., protected from light. […] For cytotoxicity assays, HepG2 and the mouse macrophage cell line J774A.1 were obtained from University of Kentucky. […] Mammalian cells were grown in Dulbecco's Modified Eagle's Medium (DMEM) (from VWR) with 10% fetal bovine serum (FBS) (from VWR) and 1% Pen/Strep (from ATCC). Cell lines were cultured at 37° C. with 5% CO2 and passaged by trypsinization with 0.05% trypsin: 0.53 mM EDTA (from Sigma-Aldrich).
Cytotoxicity assays were performed as previously described with slight modifications.^3 HepG2, J774A.1, and HEK-293 cells were first thawed from frozen stocks kept in liquid N2 and grown in Dulbecco's modified Eagles's medium (DMEM) containing 10% fetal bovine serum (FBS) and 1% Pen/Strep. […] The 96-well plates were incubated 37° C. with 5% CO2 overnight. […] The medium in the 96-well plates containing the cells was aspirated and replaced by fresh DMEM (100 μL). […] The 96-well plates were further incubated for 24 h at 37° C. with 5% CO2 overnight. To evaluate cell survival, each well was treated with 10 μL (2 mM) of resazurin sodium salt (Sigma-Aldrich, St. Louis, MO, USA) and was incubated for another 6 h. Metabolically active cells can convert resazurin to the highly fluorescent dye, resorufin, and be detected at ?560 excitation and λ590 emission using a SpectraMax M5 plate reader (Molecular Devices, San Jose, CA, USA). Triton X-100® (1%, v/v) was used as positive control; the negative control consisted of cells treated with the delivery vehicle (0.05% DMSO), and the blank control was only the culture medium with 0.05% DMSO without cells. The experiments were performed in quadruplicate.

[2] = system: Candida duobushaemulonii AR Bank #392; test: MIC determination by in vitro antifungal assay; type: cell-based
Protocol: as §1, §2

[3] = system: Candida duobushaemulonii AR Bank #394; test: MIC determination by in vitro antifungal assay; type: cell-based
Protocol: as §1, §2

[4] = system: Candida haemulonii AR Bank #393; test: MIC determination by in vitro antifungal assay; type: cell-based
Protocol: as §1, §2

[5] = system: Candida haemulonii AR Bank #395; test: MIC determination by in vitro antifungal assay; type: cell-based
Protocol: as §1, §2

[6] = system: Candida krusei AR Bank #397; test: MIC determination by in vitro antifungal assay; type: cell-based; conditions: Candida strain AR Bank #397
Protocol: as §1, §2

[7] = system: Candida lusitaniae AR Bank #398; test: MIC determination by in vitro antifungal assay; type: cell-based; conditions: Candida strain AR Bank #398
Protocol: as §1, §2

[8] = system: Kodameae ohmeri AR Bank #396; test: MIC determination by in vitro antifungal assay; type: cell-based; conditions: strain AR Bank #396
Protocol: as §1, §2

[9] = system: Saccharomyces cerevisiae AR Bank #399; test: MIC determination by in vitro antifungal assay; type: cell-based
Protocol: as §1, §2

[10] = system: ten other fungal strains (AR Bank #391-400); test: MIC determination, summary over ten additional fungal strains; type: cell-based; conditions: read-out: MIC range
Protocol: as §1, §2

[11] = system: Candida duobushaemulonii AR Bank #391; test: MIC determination by in vitro antifungal assay; type: cell-based
Protocol: as §1, §2

[12] = against all ten C. auris strains tested (AR Bank #381-390)
[13] = all C. auris strains tested with the exception of AR Bank #390
[14] = Candidozyma duobushaemuli, read-out: MIC
[15] = Candidozyma haemuli, read-out: MIC

## O=C(NNc1ccc(F)cc1)c1cccc(F)n1 [Compound 5d]
[1]; [12]
  MIC: 0.06 to 1.95 mg/L (≈ 0.241 to 7.82 µM)

## O=C(NNc1ccc(F)cc1F)c1cccc(F)n1 [Compound 5g]
[1]; [12]
  MIC: 0.12 to 7.8 mg/L (≈ 0.449 to 29.2 µM)

## O=C(NNc1ccc(F)cc1)c1cccc(Br)n1 [Compound 6d]
[1]; [12]
  MIC: 0.12 to 7.8 mg/L (≈ 0.387 to 25.2 µM)

## O=C(NNc1ccc(F)cc1)c1ncc(F)cc1F [Compound 7d]
[1]; [12]
  MIC: 0.12 to 7.8 mg/L (≈ 0.449 to 29.2 µM)

## COc1ccc(NNC(=O)c2ncc(F)cc2F)cc1 [Compound 7f]
[1]; [13]
  MIC: 0.49 to 1.95 mg/L (≈ 1.75 to 6.98 µM)

## O=C(NNc1ccc(F)cc1F)c1ncc(F)cc1F [Compound 7g]
[1]; [12]
  MIC: 0.12 to 7.8 mg/L (≈ 0.421 to 27.3 µM)

## O=C(NNc1ccc(F)cc1)c1nc(F)ccc1F [Compound 8d]
[1]; [12]
  MIC: 0.06 to 1.95 mg/L (≈ 0.225 to 7.3 µM)

## COc1ccc(NNC(=O)c2nc(F)ccc2F)cc1 [Compound 8f]
[1]; [13]
  MIC: 0.49 to 1.95 mg/L (≈ 1.75 to 6.98 µM)

## O=C(NNc1ccc(F)cc1F)c1nc(F)ccc1F [Compound 8g]
[1]; [13]
  MIC: 0.49 to 1.95 mg/L (≈ 1.72 to 6.84 µM)

## O=C(NNc1cccc(F)c1)c1cnccn1 [Compound 9a]
HepG2 cells; at 31.3 j·tg mL^−1
  cell survival: 94%

## COc1cccc(NNC(=O)c2cnccn2)c1 [Compound 9c]
[2]; [14]
  MIC: 0.98 mg/L (≈ 4.01 µM)
[3]; [14]
  MIC: 1.95 mg/L (≈ 7.98 µM)
[4]; [15]
  MIC: 0.49 mg/L (≈ 2.01 µM)
[5]; [15]
  MIC: 0.49 mg/L (≈ 2.01 µM)
[6]; Pichia kudriavzevii, read-out: MIC
  MIC: 0.49 mg/L (≈ 2.01 µM)
[7]; Clavispora lusitaniae, read-out: MIC
  MIC: 1.95 mg/L (≈ 7.98 µM)
[8]; read-out: MIC
  MIC: 0.49 mg/L (≈ 2.01 µM)
[9]; read-out: MIC
  MIC: 7.8 mg/L (≈ 31.9 µM)
HepG2 cells; up to 31.3 j·tg mL^−1, 24 h
  toxicity: no toxicity
[1]; [12]
  MIC: 0.12 to 7.8 mg/L (≈ 0.491 to 31.9 µM)
[10]
  MIC: 0.06 to 7.8 mg/L (≈ 0.246 to 31.9 µM)

## O=C(NNc1ccc(Cl)cc1)c1cnccn1 [Compound 9e]
[11]
  MIC: 1.95 μg/mL^−1
[2]
  MIC: 1.95 μg/mL^−1
[3]
  MIC: 1.95 μg/mL^−1
[4]
  MIC: 1.95 μg/mL^−1
[5]
  MIC: 3.9 μg/mL^−1
[6]
  MIC: 1.9 μg/mL^−1
[7]
  MIC: 3.9 μg/mL^−1
[8]
  MIC: 1.95 μg/mL^−1
[9]
  MIC: 3.9 μg/mL^−1
